# Data from ChEMBL document CHEMBL1146328, “Binding mode and affinity studies of DNA-binding agents using topoisomerase I DNA unwinding assay” (Bioorg Med Chem Lett, 2007).
# Columns and labels:
# [1] = biological target: T1, DNA topoisomerase 1 (Homo sapiens) (UniProt P11387); assay: Binding affinity to topoisomerase 1 assessed as concentration needed for complete DNA re-supercoiling by Topo1 assay
# T1 sequence (whole entry): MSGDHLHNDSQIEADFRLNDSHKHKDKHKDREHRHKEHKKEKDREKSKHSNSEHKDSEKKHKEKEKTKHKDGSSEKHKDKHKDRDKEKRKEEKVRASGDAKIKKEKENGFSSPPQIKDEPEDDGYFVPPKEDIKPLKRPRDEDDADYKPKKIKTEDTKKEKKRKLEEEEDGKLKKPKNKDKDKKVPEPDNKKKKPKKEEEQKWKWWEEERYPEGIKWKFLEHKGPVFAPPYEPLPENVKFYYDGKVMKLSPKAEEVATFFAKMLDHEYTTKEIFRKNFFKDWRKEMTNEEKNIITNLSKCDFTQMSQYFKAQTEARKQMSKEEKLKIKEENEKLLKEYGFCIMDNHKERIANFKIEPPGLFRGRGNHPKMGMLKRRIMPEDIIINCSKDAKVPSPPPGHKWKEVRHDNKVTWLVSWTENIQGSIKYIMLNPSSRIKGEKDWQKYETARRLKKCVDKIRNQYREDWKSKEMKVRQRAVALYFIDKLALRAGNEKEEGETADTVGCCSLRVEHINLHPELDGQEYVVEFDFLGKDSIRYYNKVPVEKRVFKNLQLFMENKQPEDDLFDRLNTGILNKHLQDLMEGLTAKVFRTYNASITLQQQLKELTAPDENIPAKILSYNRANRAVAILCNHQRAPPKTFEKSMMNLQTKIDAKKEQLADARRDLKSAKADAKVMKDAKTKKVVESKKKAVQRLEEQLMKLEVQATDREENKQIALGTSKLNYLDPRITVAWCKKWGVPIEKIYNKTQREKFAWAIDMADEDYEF
# DNA = assay: Binding affinity to calf thymus DNA by ITC method; format: nucleic-acid assay; details: Bos taurus
# [2] = Partition coefficient, log P of the compound; format: physicochemical; details: octanol/water
# Homo sapiens [3] = species: Homo sapiens; assay: Binding affinity to DNA by spectrophotometric titration method
# Homo sapiens [4] = species: Homo sapiens; assay: Binding affinity to DNA assessed as thermal melting temperature
Compound,Activity [1] [µM],K (DNA),logP [2],K (Homo sapiens [3]),ΔTm (Homo sapiens [4]) [°C]
C[N+](C)(C)CCCN1C(=O)c2ccc3c4c(ccc(c24)C1=O)C(=O)N(CCC[N+](C)(C)C)C3=O,3,12.2 10^5/M,-2.5,5 10^5/M,7.6
CCCC[N+](C)(CCCC)CCCN1C(=O)c2ccc3c4c(ccc(c24)C1=O)C(=O)N(CCC[N+](C)(CCCC)CCCC)C3=O,5,5.7 10^5/M,-0.9,1 10^5/M,4.6
